Measurements taken from the supplement of paper PMC10307832.

Experiments:
Assay in all cases: relative viability (nuclei count vs DMSO), 5 days (fraction); higher = more cells survive
[1] = tested on: NCI-H2087
Procedure, shortened: (§1)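 Cells from lung cancer lines were seeded into 1536-well plates and, one day later, dosed by pin tool. Treatments were either a single drug or a fixed dose of an anchor drug with five library-drug doses (not always all listed) in √10 steps. After 5 days, nuclei were stained in a one-step fixation (final 0.05% Triton X-100, 1% formaldehyde, 1 ug/ml Hoechst) and counted on 4× images, and relative viability is the treated-to-vehicle nuclei ratio, as the median of duplicate plates.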

[2] = tested on: HOP-62
Procedure, shortened: as §1

[3] = tested on: NCI-H647
Procedure, shortened: as §1

[4] = tested on: SW 1573
Procedure, shortened: as §1

[5] = tested on: PC-3 [JPC-3]
Procedure, shortened: as §1

[6] = tested on: LOU-NH91
Procedure, shortened: as §1

[7] = tested on: H3255
Procedure, shortened: as §1

[8] = tested on: NCI-H1975
Procedure, shortened: as §1

[9] = tested on: EKVX
Procedure, shortened: as §1

[10] = tested on: EPLC-272H
Procedure, shortened: as §1

[11] = tested on: BEN
Procedure, shortened: as §1

Clc1ccc(Nc2nnc(Cc3ccncc3)c3ccccc23)cc1 [Vatalanib] + C[C@@H](Oc1cc(-c2cnn(C3CCNCC3)c2)cnc1N)c1c(Cl)ccc(F)c1Cl [Crizotinib] (partner 1 µM)
relative viability ([1]; first compound 0.04 µM): 0.89
relative viability ([1]; first compound 0.1265 µM): 1.07
relative viability ([1]; first compound 0.4 µM): 0.828
relative viability ([1]; first compound 1.265 µM): 0.826
relative viability ([1]; first compound 4 µM): 0.89
relative viability ([2]; first compound 0.04 µM): 0.921
relative viability ([2]; first compound 0.4 µM): 0.948
relative viability ([2]; first compound 1.265 µM): 0.911
relative viability ([2]; first compound 4 µM): 0.904
relative viability ([3]; first compound 0.04 µM): 0.92
relative viability ([3]; first compound 0.1265 µM): 1.07
relative viability ([3]; first compound 0.4 µM): 1.31
relative viability ([3]; first compound 1.265 µM): 0.977
relative viability ([3]; first compound 4 µM): 0.918
relative viability ([4]; first compound 0.04 µM): 0.918
relative viability ([4]; first compound 0.1265 µM): 0.721
relative viability ([4]; first compound 0.4 µM): 0.942
relative viability ([4]; first compound 1.265 µM): 0.627
relative viability ([4]; first compound 4 µM): 0.817
relative viability ([5]; first compound 0.04 µM): 0.978
relative viability ([5]; first compound 0.1265 µM): 0.872
relative viability ([5]; first compound 0.4 µM): 0.967
relative viability ([5]; first compound 1.265 µM): 0.937
relative viability ([5]; first compound 4 µM): 0.949
relative viability ([6]; first compound 0.04 µM): 0.728
relative viability ([6]; first compound 0.1265 µM): 0.708
relative viability ([6]; first compound 0.4 µM): 0.674
relative viability ([6]; first compound 1.265 µM): 0.718
relative viability ([6]; first compound 4 µM): 0.726
relative viability ([7]; first compound 0.04 µM): 0.986
relative viability ([7]; first compound 0.1265 µM): 0.878
relative viability ([7]; first compound 0.4 µM): 0.718
relative viability ([7]; first compound 1.265 µM): 0.802
relative viability ([7]; first compound 4 µM): 0.85
relative viability ([8]; first compound 0.04 µM): 0.946
relative viability ([8]; first compound 0.1265 µM): 0.856
relative viability ([8]; first compound 0.4 µM): 0.959
relative viability ([8]; first compound 1.265 µM): 0.845
relative viability ([8]; first compound 4 µM): 0.821
relative viability ([9]; first compound 0.04 µM): 0.993
relative viability ([9]; first compound 0.1265 µM): 0.9
relative viability ([9]; first compound 0.4 µM): 1.11
relative viability ([9]; first compound 1.265 µM): 1.02
relative viability ([9]; first compound 4 µM): 0.921
relative viability ([10]; first compound 0.04 µM): 0.836
relative viability ([10]; first compound 0.1265 µM): 0.779
relative viability ([10]; first compound 0.4 µM): 0.965
relative viability ([10]; first compound 1.265 µM): 0.919
relative viability ([10]; first compound 4 µM): 0.955
relative viability ([11]; first compound 0.04 µM): 1.03
relative viability ([11]; first compound 0.1265 µM): 0.764
relative viability ([11]; first compound 0.4 µM): 1.01
relative viability ([11]; first compound 1.265 µM): 0.858
relative viability ([11]; first compound 4 µM): 1.01
